Source: US5482964A, “Substituted phenoxyhydroxypropyl amines as central nervous system agents” (Warner-Lambert Company, priority 1994, dated 1996)
pIC50, pKi: −log10 of the molar value.

What was measured:
P-type calcium channels = biological target: T1, P-type calcium channels (Rattus norvegicus, UniProt P54282); assay: Inhibition of depolarization induced Ca++ flux (CaFl), 45Ca++ influx into rat neocortical synaptosomes; format: biochemical; conditions: for pIC50: 30 mM KCl stimulated 45Ca flux, rat neocortical synaptosomes; for inhibition at 10 µM / inhibition at 30 µM: read-out: CaFl, percent inhibition
T1 construct: Male rats (Sprague-Dawley, 200-220 g) were killed by decapitation and neocortices were isolated by blunt dissection; from tissue; host or cells: Sprague-Dawley rat neocortex, crude synaptosomes
T1 sequence (P54282 whole entry): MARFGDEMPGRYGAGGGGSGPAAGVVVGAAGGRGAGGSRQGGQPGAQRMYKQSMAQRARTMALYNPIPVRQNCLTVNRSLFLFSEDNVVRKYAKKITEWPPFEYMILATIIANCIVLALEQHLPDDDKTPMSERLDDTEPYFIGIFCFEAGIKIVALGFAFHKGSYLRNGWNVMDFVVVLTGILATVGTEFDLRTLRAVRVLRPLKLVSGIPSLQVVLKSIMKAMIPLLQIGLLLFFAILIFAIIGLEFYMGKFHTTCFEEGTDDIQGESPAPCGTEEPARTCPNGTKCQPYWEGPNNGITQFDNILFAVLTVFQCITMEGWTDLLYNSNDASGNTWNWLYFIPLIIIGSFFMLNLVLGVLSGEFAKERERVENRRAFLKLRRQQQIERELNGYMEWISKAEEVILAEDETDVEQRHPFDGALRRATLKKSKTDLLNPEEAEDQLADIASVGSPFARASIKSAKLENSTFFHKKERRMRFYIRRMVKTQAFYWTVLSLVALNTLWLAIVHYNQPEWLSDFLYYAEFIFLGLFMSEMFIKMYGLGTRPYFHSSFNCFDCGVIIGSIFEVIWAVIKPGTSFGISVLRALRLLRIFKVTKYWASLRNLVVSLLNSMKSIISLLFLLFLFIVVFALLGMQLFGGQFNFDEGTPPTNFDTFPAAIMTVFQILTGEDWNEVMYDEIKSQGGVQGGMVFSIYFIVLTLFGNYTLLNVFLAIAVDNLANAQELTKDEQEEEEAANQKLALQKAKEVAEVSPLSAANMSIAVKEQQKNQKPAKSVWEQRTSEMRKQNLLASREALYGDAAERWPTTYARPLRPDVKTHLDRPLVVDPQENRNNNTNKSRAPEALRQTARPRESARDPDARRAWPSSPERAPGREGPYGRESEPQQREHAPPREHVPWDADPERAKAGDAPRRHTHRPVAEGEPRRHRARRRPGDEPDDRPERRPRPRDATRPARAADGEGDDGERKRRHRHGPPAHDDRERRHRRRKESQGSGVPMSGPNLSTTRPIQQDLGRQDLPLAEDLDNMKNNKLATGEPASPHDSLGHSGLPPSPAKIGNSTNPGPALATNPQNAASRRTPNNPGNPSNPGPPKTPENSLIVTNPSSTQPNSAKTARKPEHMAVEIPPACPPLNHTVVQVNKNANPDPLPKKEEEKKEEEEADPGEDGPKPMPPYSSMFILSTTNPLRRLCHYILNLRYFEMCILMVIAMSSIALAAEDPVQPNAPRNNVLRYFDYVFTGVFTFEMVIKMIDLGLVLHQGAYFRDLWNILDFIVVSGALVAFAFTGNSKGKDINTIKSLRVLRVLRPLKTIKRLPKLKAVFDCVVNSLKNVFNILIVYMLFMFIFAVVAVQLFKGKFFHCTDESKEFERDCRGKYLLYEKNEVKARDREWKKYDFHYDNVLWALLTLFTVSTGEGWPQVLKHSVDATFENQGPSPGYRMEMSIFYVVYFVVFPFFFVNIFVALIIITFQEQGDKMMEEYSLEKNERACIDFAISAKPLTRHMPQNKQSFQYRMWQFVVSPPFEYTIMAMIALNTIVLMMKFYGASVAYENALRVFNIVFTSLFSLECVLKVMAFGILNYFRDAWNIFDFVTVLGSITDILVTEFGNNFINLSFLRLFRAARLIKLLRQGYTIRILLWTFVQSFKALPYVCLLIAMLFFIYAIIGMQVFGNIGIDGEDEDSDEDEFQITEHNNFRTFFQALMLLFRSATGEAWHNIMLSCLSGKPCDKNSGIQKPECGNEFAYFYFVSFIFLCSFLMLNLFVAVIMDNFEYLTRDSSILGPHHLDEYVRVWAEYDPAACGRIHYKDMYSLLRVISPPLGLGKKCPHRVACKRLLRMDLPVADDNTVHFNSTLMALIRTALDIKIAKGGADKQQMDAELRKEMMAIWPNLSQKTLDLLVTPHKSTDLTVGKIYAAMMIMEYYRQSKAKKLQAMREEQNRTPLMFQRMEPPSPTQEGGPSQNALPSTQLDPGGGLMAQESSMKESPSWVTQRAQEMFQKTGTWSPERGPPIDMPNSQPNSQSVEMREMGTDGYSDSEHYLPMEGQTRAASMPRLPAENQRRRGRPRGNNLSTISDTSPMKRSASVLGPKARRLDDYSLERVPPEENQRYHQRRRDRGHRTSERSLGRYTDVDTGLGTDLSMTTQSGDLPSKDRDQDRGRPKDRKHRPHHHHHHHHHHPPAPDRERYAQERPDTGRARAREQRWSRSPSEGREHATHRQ
From the text: A large influx of calcium from extracellular compartments into neurons is observed after opening of voltage-dependent calcium channels. The opening of calcium channels may be induced by a K^+ -stimulated depolarization of neuronal membranes. A crude synaptosomal preparation contains small vesicles surrounded by neuronal membranes, and it is feasible to study the opening of voltage-operated calcium channels in such a preparation. In the test described below, the influx of ^45 Ca^++ into rat synaptosomes is studied under depolarized conditions. The effect of the test compounds on the depolarization induced calcium update can thus be studied. The calcium influx measured in this assay is believed to represent the P-type calcium channels.
Male rats (Sprague-Dawley, 200-220 g) were killed by decapitation and neocortices were isolated by blunt dissection. White matter was dissected away and the gray matter was placed in cold sucrose buffer (composition (mM): sucrose 320, TRIS base 5.0, EDTA 0.1; adjusted to pH 7.3 with HCl). The tissue was homogenized using 5 strokes at 500 rpm followed by 4 strokes at 800 rpm. The homogenate was centrifuged at 1075 g for 10 minutes. The pellet was discarded and the supernatant was centrifuged at 15800 g for 10 minutes at 4° C., and the supernatant was discarded. The final pellet was resuspended in incubation buffer and kept on ice.
Fifty-microliter aliquots of neocortical synaptosome suspension were preincubated for 5 minutes at 25° C. in 400 μL of incubation buffer containing drug or control solvent. The synaptosomes were then exposed to a tracer quantity of ^45 CaCl2 (1 μCi/mL) in combination with either 3 mM KCl (basal calcium flux or 30 mM KCl (stimulated calcium flux). The calcium flux was terminated by filtration over glass-fiber filters (GFB) using a Skatron 12-well harvester; filters were washed with a pressurized, continuous flow of 3 mL wash buffer (composition (mM): choline chloride 140, EGTA 3, HEPES 22; adjusted to pH 7.3 with TRIS base). Radioactivity of the filters was measured by scintillation counting. Basal calcium flux was subtracted from stimulated calcium flux in both control- and drug-treated conditions, and data were expressed as percent inhibition of the adjusted control response.

sodium channels = conditions: rat neocortical membranes, 5 nM [3H]batrachotoxinin, Cheng-Prusoff; read-out: BTX Binding
male CF-1 mice = assay: Maximal electroshock (MES) anticonvulsant screen in mice; format: in vivo
Procedure: All experiments were conducted on male CF-1 mice (Charles River Laboratory, Portage, Mich.). The mice weighed 20 to 35 g and were allowed free access to food and water prior to testing. The compounds were dissolved in various solutions of up to 50% organic solvents and 50% buffered solutions. All doses were injected intravenously (IV) in a volume of 1.0 mL per 100 g of body weight using a 25-gauge needle and a 1 cc syringe. Doses of the compounds were calculated as the free base.
Maximal electroshock was administered via corneal electrodes with an electroshock apparatus (Wahlquist Instrument Company) immediately following the inverted screen test. The stimulus consisted of a 50 mA current (100 mA peak-to-peak) and duration of 0.2 seconds. The protocol for the MES assay involved groups of five mice per dose at each time period postdose. […] The mice were sacrificed with carbon dioxide immediately after MES. Anticonvulsant data were recorded as the number of mice protected from MES out of five. Two out of five were considered active.

COc1ccc(CCN(Cc2cccc(F)c2)CC(O)COc2cccc(C)c2)cc1OC (stereo not shown) [Example 4, 1-[[2-(3,4-Dimethoxyphenyl)-ethyl]-(3-fluorobenzyl)amino]-3-m-tolyloxy-propan-2-ol]
pIC50 (P-type calcium channels): 5.18

COc1ccc(CCN(Cc2ccccc2[N+](=O)[O-])CC(O)COc2cccc(C)c2)cc1OC (stereo not shown) [Example 11, 1-[[2-(3,4-Dimethoxyphenyl)-ethyl]-(2-nitrobenzyl)amino]-3-m-tolyloxy-propan-2-ol]
pIC50 (P-type calcium channels): 5.51

COc1ccc(CCN(Cc2ccccc2)CC(O)COc2ccc(C3CCCCC3)cc2C)cc1OC (stereo not shown) [Example 15, 1-{Benzyl-[2-(3,4-dimethoxyphenyl)-ethyl]-amino}-3-(4-cyclohexyl-2-methylphenoxy)-propan-2-ol]
pIC50 (P-type calcium channels): 5.04

COc1ccc(CCN(Cc2cccc([N+](=O)[O-])c2)CC(O)COc2cccc(C)c2)cc1OC (stereo not shown) [Example 6, 1-[[2-(3,4-Dimethoxyphenyl)-ethyl]-(3-nitrobenzyl)amino]-3-m-tolyloxy-propan-2-ol]
inhibition at 10 µM (P-type calcium channels): 57%
inhibition at 30 µM (P-type calcium channels): 62%

COc1ccc(CCN(CC(O)COc2cccc(C)c2)CC2CCCCC2)cc1OC (stereo not shown) [Example 23, 1-{Cyclohexylmethyl-[2-(3,4-dimethoxyphenyl)ethyl]-amino}-3-m-tolyloxy-propan-2-ol]
pIC50 (P-type calcium channels): 5.72

COc1ccc(CCN(C)CC(O)CSc2cccc3ccccc23)cc1OC (stereo not shown) [Example 29, 1-{[2-(3,4-Dimethoxyphenyl)-ethyl]-methylamino}-3-(naphthalen-1-ylsulfanyl)-propan-2-ol]
pIC50 (P-type calcium channels): 5.44

COc1ccc(CCN(Cc2ccccc2F)CC(O)COc2cccc(C)c2)cc1OC (stereo not shown) [Example 13, 1-[[2-(3,4-Dimethoxyphenyl)-ethyl]-(2-fluorobenzyl)amino]-3-m-tolyloxy-propan-2-ol]
pIC50 (P-type calcium channels): 5.74

COc1ccc(CCN(Cc2ccc(F)cc2)CC(O)COc2cccc(C)c2)cc1OC (stereo not shown) [Example 1, 1-[[2-(3,4-Dimethoxyphenyl)-ethyl]-(4-fluorobenzyl)amino]-3-m-tolyloxy-propan-2-ol]
pIC50 (P-type calcium channels): 5.28

COc1ccc(CCN(Cc2ccccc2)CC(O)COc2cccc(C)c2)cc1OC (stereo not shown) [Example 2, 1-{Benzyl-[2-(3,4-dimethoxyphenyl)-ethyl]amino}-3-m-tolyloxy-propan-2-ol]
pIC50 (P-type calcium channels): 5.04
pKi (sodium channels): 6.28

COc1ccc(CCN(Cc2ccc([N+](=O)[O-])cc2)CC(O)COc2cccc(C)c2)cc1OC (stereo not shown) [Example 5, 1-[[2-(3,4-Dimethoxyphenyl)-ethyl]-(4-nitrobenzyl)amino]-3-m-tolyloxy-propan-2-ol]
inhibition at 10 µM (P-type calcium channels): 59%
inhibition at 30 µM (P-type calcium channels): 62%

COc1ccc(CCN(Cc2ccccc2)CC(O)COc2ccc3c(c2)CCC3)cc1OC (stereo not shown) [Example 16, 1-{Benzyl-[2-(3,4-dimethoxyphenyl)-ethyl]-amino}-3-(indan-5-yloxy)-propan-2-ol]
pIC50 (P-type calcium channels): 5.32

COc1ccc(CCN(Cc2cccc(Cl)c2)CC(O)COc2cccc(C)c2)cc1OC (stereo not shown) [Example 7, 1-{(3-Chlorobenzyl)-[2-(3,4-dimethoxyphenyl)ethyl]-amino}-3-m-tolyloxy-propan-2-ol]
inhibition at 10 µM (P-type calcium channels): 47%

COc1ccc(CN(CCc2ccc(OC)c(OC)c2)CC(O)COc2cccc(C)c2)cc1 (stereo not shown) [Example 8, 1-[[2-(3,4-Dimethoxyphenyl)-ethyl]-(4-methoxybenzyl)amino]-3-m-tolyloxy-propan-2-ol]
pIC50 (P-type calcium channels): 5.27
pKi (sodium channels): 6.82

COc1ccc(CCN(Cc2ccc(Cl)cc2)CC(O)COc2cccc(C)c2)cc1OC (stereo not shown) [Example 3, 1-{(4-Chlorobenzyl)-[2-(3,4-dimethoxyphenyl)-ethyl]-amino}-3-m-tolyloxy-propan-2-ol]
inhibition at 10 µM (P-type calcium channels): 44%
inhibition at 30 µM (P-type calcium channels): 77%

COc1ccc(CCN(CCc2ccccc2)CC(O)COc2cccc(C)c2)cc1OC (stereo not shown) [Example 22, 1-{[2-(3,4-Dimethoxyphenyl)ethyl]-phenethylamino}-3-m-tolyloxy-propan-2-ol]
pIC50 (P-type calcium channels): 5.85

COc1ccc(CCN(Cc2c[nH]c3ccccc23)CC(O)COc2cccc(C)c2)cc1OC (stereo not shown) [Example 30, 1-[[2-(3,4-Dimethoxyphenyl)ethyl]-(1H-indol-3-ylmethyl)-amino]-3-m-tolyloxypropan-2-ol]
pIC50 (P-type calcium channels): 5.35
pKi (sodium channels): 7.82

COc1ccc(CCN(Cc2ccccc2Cl)CC(O)COc2cccc(C)c2)cc1OC (stereo not shown) [Example 17, 1-{(2-Chlorobenzyl)-[2-(3,4-dimethoxyphenyl)ethyl]-amino}-3-m-tolyloxy-propan-2-ol]
inhibition at 10 µM (P-type calcium channels): 46%
inhibition at 30 µM (P-type calcium channels): 55%

COc1cccc(CN(CCc2ccc(OC)c(OC)c2)CC(O)COc2cccc(C)c2)c1 (stereo not shown) [Example 10, 1-[[2-(3,4-Dimethoxyphenyl)-ethyl]-(3-methoxybenzyl)amino]-3-m-tolyloxy-propan-2-ol]
pIC50 (P-type calcium channels): 5.29

COc1ccc(CCN(C)CC(O)COc2cccc(C)c2)cc1OC (stereo not shown) [Example 25, 1-{[2-(3,4-Dimethoxyphenyl)-ethyl]-methylamino}-3-m-tolyloxy-propan-2-ol]
inhibition at 30 µM (P-type calcium channels): 31%

COc1ccc(CCN(Cc2cccc3ccccc23)CC(O)COc2cccc(C)c2)cc1OC (stereo not shown) [Example 9, 1-{[2-(3,4-Dimethoxyphenyl)-ethyl]-naphthalen-1-ylmethylamino}-3-m-tolyloxy-propan-2-ol]
pIC50 (P-type calcium channels): 5.00

COc1ccc(CCN(Cc2ccccc2)CC(O)CSc2cccc3ccccc23)cc1OC (stereo not shown) [Example 19, 1-{Benzyl-[2-(3,4-dimethoxyphenyl)-ethyl]-amino}-3-(naphthalen-1-ylsulfanyl)-propan-2-ol]
pIC50 (P-type calcium channels): 5.60
pKi (sodium channels): 6.70

COc1ccc(CCN(Cc2ccccc2)CC(O)COc2ccc(OCc3ccccc3)cc2)cc1OC (stereo not shown) [Example 14, 1-{Benzyl-[2-(3,4-dimethoxyphenyl)-ethyl]-amino}-3-(4-benzyloxyphenoxy)-propan-2-ol]
pIC50 (P-type calcium channels): 5.30
pKi (sodium channels): 7.80

COc1ccc(CCN(C)CC(O)COc2cccc3ccccc23)cc1OC (stereo not shown) [Example 28, 1-{[2-(3,4-Dimethoxyphenyl)-ethyl]-methylamino}-3-(naphthalen-1-yloxy)-propan-2-ol]
pIC50 (P-type calcium channels): 5.17

COc1ccc(CCN(Cc2ccccc2)CC(O)CSc2cccc(C(F)(F)F)c2)cc1OC (stereo not shown) [Example 21, 1-{Benzyl-[2-(3,4-dimethoxyphenyl)-ethyl]-amino}-3-(3-trifluoromethylphenylsulfanyl)-propan-2-ol]
pIC50 (P-type calcium channels): 5.37
pKi (sodium channels): 6.36

COc1ccc(CCN(C)CC(O)COc2ccc3c(c2)CCC3)cc1OC (stereo not shown) [Example 27]
inhibition at 10 µM (P-type calcium channels): 43%
inhibition at 30 µM (P-type calcium channels): 69%

COc1ccc(CCN(Cc2ccccc2)CC(O)COc2cccc3ccccc23)cc1OC (stereo not shown) [Example 18, 1-{Benzyl-[2-(3,4-dimethoxyphenyl)-ethyl]-amino}-3-(naphthalen-1-yloxy)-propan-2-ol]
pIC50 (P-type calcium channels): 5.09

COc1ccc(CCN(C)CC(O)COc2ccc(C3CCCCC3)cc2C)cc1OC (stereo not shown) [Example 24, 1-(4-Cyclohexyl-2-methylphenoxy)-3-{[2-(3,4-dimethoxyphenyl)-ethyl]-methylamino}-propan-2-ol]
pIC50 (P-type calcium channels): 5.68
MES, number of mice protected (male CF-1 mice; 1 mg/kg IV, 3 min postdose): 0/5
MES, number of mice protected (male CF-1 mice; 1 mg/kg IV, 30 min postdose): 0/5
MES, number of mice protected (male CF-1 mice; 3 mg/kg IV, 3 min postdose): 0/5
MES, number of mice protected (male CF-1 mice; 3 mg/kg IV, 30 min postdose): 1/5
MES, number of mice protected (male CF-1 mice; 3 mg/kg IV, 1 hr postdose): 1/5
MES, number of mice protected (male CF-1 mice; 10 mg/kg IV, 3 min postdose): 4/5
MES, number of mice protected (male CF-1 mice; 10 mg/kg IV, 30 min postdose): 4/5
Animals died in this group (male CF-1 mice; 10 mg/kg IV, 1 hr group): 1/5
MES, number of mice protected (male CF-1 mice; 10 mg/kg IV, 1 hr postdose): 3/4
pKi (sodium channels): 6.51

COc1ccc(CCN(C)CC(O)COc2ccc(OCc3ccccc3)cc2)cc1OC (stereo not shown) [Example 26, 1-(4-Benzyloxyphenoxy)-3-{[2-(3,4-dimethoxyphenyl)ethyl]-methylamino}-propan-2-ol]
pIC50 (P-type calcium channels): 5.48

COc1ccc(CCN(Cc2ccccc2)CC(O)COc2cccc(C(F)(F)F)c2)cc1OC (stereo not shown) [Example 20, 1-{Benzyl-[2-(3,4-dimethoxyphenyl)-ethyl]-amino}-3-(3-trifluoromethylphenoxy)-propan-2-ol]
pIC50 (P-type calcium channels): 5.33
pKi (sodium channels): 6.21

COc1ccccc1CN(CCc1ccc(OC)c(OC)c1)CC(O)COc1cccc(C)c1 (stereo not shown) [Example 12, 1-[[2-(3,4-Dimethoxyphenyl)-ethyl]-(2-methoxybenzyl)amino]-3-m-tolyloxy-propan-2-ol]
pIC50 (P-type calcium channels): 5.39
